Results: patent publication US4870002A, “Method of prevention of oxidative injury to cells” (priority 1985, dated 1989)
“Also recorded” adds a separate entry of the source.

How the values were obtained:
pig RBCs = test: Thermal fragility / hemolysis of RBCs (410 nm absorbance of supernatant); format: cell-based
Experimental: Blood was collected from Landrace-Duroc swine from a closed herd. Pigs from this herd had previously expressed episodes of porcine stress syndrome (malignant hyperthermia) following halothane anesthesia. The blood was collected into acidic citrated dextrose solution in standard blood bags. The blood was diluted 1:10 in phosphate (0.1M) buffered saline (PBS), pH 7.4, in 10 ml aliquots, centrifuged in a clinical centrifuge, and the erythrocytes were resuspended in fresh PBS. The cells were stored at 4° C. until used in the various assays. The post-collection chronological age of the RBCs used for a particular assay is noted in the results for each assay. The cells were counted in an automated cell counter (Coulter ZBI, Coulter Electronics, Inc., Hialeah, Fla. 33010).
Red blood cells were heated in 1 or 1.5 ml aliquots of PBS pH 7.4 with or without additional reagents in cellulose nitrate or polypropylene centrifuge tubes. Two concentrations of cells were used as indicated in the results. Heating was accomplished by three methods: microwave radiation, hot air, or water bath heating. The microwave device was a circularly polarized waveguide powered by a 1-kw S-band (microwave) amplifier (Model 10704,MCL, Inc., La Grange, Ill.). The heating of the sample at a specific absorption rate (SAR) of 91±4 W/kg (continuous wave (CW), 2450MHz) was offset by an air-cooling system that maintained a constant temperature. This system has been previously described in greater detail in Kiel, J. L. and D. N. Erwin, "Microwave and thermal interactions with oxidative hemolysis", 16 Physiol. Chem. Phys. Med. NMR, 317-323 (1984), which reference is hereby incorporated in its entirety by this specific reference thereto. […] The temperature was held within ±0.2° C. by this system. In the absence of microwave radiation, the temperature was held constant by hot air alone. The microwave/hot air system was brought to 37° C. for 15 min. prior to raising the temperature to 43° C. by microwaves or hot hot air. The water bath heating held the temperature within ±0.5° C. Heating times were 10, 15, or 30 min. The temperatures examined were 37°, 43°, 45°, or 48°.
Hemoglobin released into the supernatants of the heated cells were determined by the method described in the above-incorporated reference of Kiel and Erwin (1984). In brief, the supernatants were collected following centrifugation in a clinical centrifuge, diluted 1:2 in PBS, pH 7.4, and the optical absorbances at 410 nm were determined in a dual beam spectrophotometer. Pyruvate, lactate, inosine, hydrogen peroxide, mimosine, and/or 3-amino-L-tyrosine were added to the samples as indicated in Tables 1-3 and 9-12. All reagents were diluted in PBS and the final volumes of the samples were constant.

[1] = test system: L5178Y murine lymphosarcoma cells; test: Survival after gamma irradiation by colony formation in soft agar; format: cell-based
Experimental: The remainder of the cell suspension after irradiation was used for determination of survival by colony formation in soft agar. For each dose, based on estimated survival probability, different numbers of cells were distributed in soft agar suspension (0.4% DIFCO Noble Agar) into 100 mm petri dishes. The dishes were briefly chilled to gel the agar, and then after brief warming in the laminar flow hood, placed in the 37° C. humidified CO2 incubator. The dishes were incubated for 11 days, and the number of colonies were determined using an Artek Automatic Colony Counter.
For the control and each 3-aminotyrosine and radiation dose, the percent cloning efficiency (% CE) was determined by dividing the number of colonies counted at 11 days by the number of cells seeded into the agar, times 100. The 0 dose % CE value was taken to be 100% survival for that chemical. The percent (%) survival reported was calculated by dividing the % CE after a given dose of radiation by the 0 dose % CE, times 100.
THMG/THG treated L5178Y cells were mass cultured and the cell density determined. Aliquots of the cell suspension with enough cells to give 300,000 cells per ml in 60 ml (1.8×10^7 cells) were distributed into three 50 ml centrifuge tubes, and after centrifugation, the original growth medium was discarded. The cells were resuspended in GIBCO custom formulation medium which had been prepared without phenol red. The cells were then washed one more time by centrifugation and resuspended again in 10 ml of the phenol red-free medium. These 10 ml suspensions of cells containing 1.8×10^7 cells were then transferred into three flasks already containing 50 ml of phenol red-free medium, distilled water, and either 100 nanomoles/ml or 2 micromoles/ml solutions of 3-aminotyrosine. The exposure system was treated as light sensitive (i.e., procedures were performed under gold light or reduced lighting).
Immediately after irradiation was completed, the cells were centrifuged, washed twice with F10p, and resuspended in 10 ml of F10p. The cell density was again determined by Coulter counter. […] After 11 days incubation at 37° C., colonies were counted and cell survival was determined.

## Nc1cc(C[C@H](N)C(=O)O)ccc1O [3-aminotyrosine, 3-amino-L-tyrosine]
Pig RBCs; 74 μM, 48° C. 30 min
  Percent difference from controls (corrected), 4° C.: -0.8%
  Percent difference from controls (corrected), 48° C.: -38.3%
Pig RBCs; 74 μM, 48° C. 30 min, RBCs 20 days post collection, 1.4×10^9 per ml
  410 nm absorbance, Actual: 0.491 ± 0.032
Pig RBCs; 74 μM, 48° C. 30 min, corrected for RBC dilution
  410 nm absorbance, Corrected: 0.368
Pig RBCs; 74 μM, 48° C. for 30 min
  effect on thermal hemolysis, in words: suppressed the thermal hemolysis to the level of the 4 °C control; also recorded: powerful inhibitor
Pig RBCs; 1.49 mM, 45° C.
  effect on thermal hemolysis, in words: did not significantly inhibit
Pig RBCs; 3-amino-L-tyrosine and H2O2 at 37° C., 4° C. control 0.243±0.004
  hemolysis, optical density of supernatants (1:2 dilution) at 410 nm: 0.261±0.007
Pig RBCs; preincubation with 3-amino-L-tyrosine alone (1.49 mM, 4° C., 72 hours)
  hemolytic value: 0.452±0.02
Pig RBCs; pyruvate and 3-amino-L-tyrosine, 37° C.
  spontaneous hemolysis reading: 0.326±0.03
[1]; Sixteen hour incubation, 250 rads, 1000 cells seeded, 2 micromoles/ml
  Ratio of Percent Survival, 3-Aminotyrosine/Control: 0.84
[1]; Sixteen hour incubation, 250 rads, 1000 cells seeded, 100 nanomoles/ml
  Ratio of Percent Survival, 3-Aminotyrosine/Control: 0.81
[1]; Sixteen hour incubation, 250 rads, 2000 cells seeded, 2 micromoles/ml
  Ratio of Percent Survival, 3-Aminotyrosine/Control: 0.94
[1]; Sixteen hour incubation, 250 rads, 2000 cells seeded, 100 nanomoles/ml
  Ratio of Percent Survival, 3-Aminotyrosine/Control: 0.85
[1]; Sixteen hour incubation, 500 rads, 1000 cells seeded, 2 micromoles/ml
  Ratio of Percent Survival, 3-Aminotyrosine/Control: 1.20
[1]; Sixteen hour incubation, 500 rads, 1000 cells seeded, 100 nanomoles/ml
  Ratio of Percent Survival, 3-Aminotyrosine/Control: 0.63
[1]; Sixteen hour incubation, 500 rads, 2000 cells seeded, 2 micromoles/ml
  Ratio of Percent Survival, 3-Aminotyrosine/Control: 1.59
[1]; Sixteen hour incubation, 500 rads, 2000 cells seeded, 100 nanomoles/ml
  Ratio of Percent Survival, 3-Aminotyrosine/Control: 0.98
[1]; Sixteen hour incubation, 1000 rads, 2.5 × 10^5 cells seeded, 2 micromoles/ml
  Ratio of Percent Survival, 3-Aminotyrosine/Control: 1.95
[1]; Sixteen hour incubation, 1000 rads, 2.5 × 10^5 cells seeded, 100 nanomoles/ml
  Ratio of Percent Survival, 3-Aminotyrosine/Control: 4.91
[1]; Sixteen hour incubation, 1000 rads, 5.0 × 10^5 cells seeded, 2 micromoles/ml
  Ratio of Percent Survival, 3-Aminotyrosine/Control: 3.22
[1]; Sixteen hour incubation, 1000 rads, 5.0 × 10^5 cells seeded, 100 nanomoles/ml
  Ratio of Percent Survival, 3-Aminotyrosine/Control: 1.27
[1]; Zero hour incubation, 250 rads, 2 micromoles/ml
  Ratio of Percent Survival, 3-Aminotyrosine/Control: 0.89
[1]; Zero hour incubation, 250 rads, 100 nanomoles/ml
  Ratio of Percent Survival, 3-Aminotyrosine/Control: 0.85
[1]; Zero hour incubation, 500 rads, 2 micromoles/ml
  Ratio of Percent Survival, 3-Aminotyrosine/Control: 0.63
[1]; Zero hour incubation, 500 rads, 100 nanomoles/ml
  Ratio of Percent Survival, 3-Aminotyrosine/Control: 0.70
[1]; Zero hour incubation, 1000 rads, 2 micromoles/ml
  Ratio of Percent Survival, 3-Aminotyrosine/Control: 0.51
[1]; Zero hour incubation, 1000 rads, 100 nanomoles/ml
  Ratio of Percent Survival, 3-Aminotyrosine/Control: 0.56
[1]; cells preincubated for 16 hours
  effect on cell survival after irradiation, in words: protective of cell survival
